Test results reported in ChEMBL document CHEMBL5036347, “Design of the naphthyl-diarylpyrimidines as potent non-nucleoside reverse transcriptase inhibitors (NNRTIs) via structure-based extension into the entrance channel” (Eur J Med Chem, 2021).

System: Human immunodeficiency virus 1
Experiment: Anti-HIV activity against HIV-1 IIIB infected in human MT4 cells assessed as reduction in virus-induced cytopathic effect incubated for 5 days by MTT assay
Format: functional, organism-based
Conditions: Human immunodeficiency virus 1, IIIB, MT4, 120 h

Row | SMILES | EC50
1 | COc1cc2cc(C#N)ccc2c(OC)c1Oc1cc(NCCCO)nc(Nc2ccc(C#N)cc2)n1 | 0.014 µM
2 | COc1cc2cc(C#N)ccc2c(OC)c1Oc1cc(NC2CCOCC2)nc(Nc2ccc(C#N)cc2)n1 | 0.04 µM

System: Human immunodeficiency virus 2
Experiment: Anti-HIV activity against HIV2 ROD infected in human MT4 cells assessed as reduction in virus-induced cytopathic effect incubated for 5 days by MTT assay
Format: functional, organism-based
Conditions: Human immunodeficiency virus 2, ROD, MT4, 120 h

Row | SMILES | EC50
3 | COc1cc2cc(C#N)ccc2c(OC)c1Oc1cc(NCCCO)nc(Nc2ccc(C#N)cc2)n1 | 4.1 µM
4 | COc1cc2cc(C#N)ccc2c(OC)c1Oc1cc(NC2CCOCC2)nc(Nc2ccc(C#N)cc2)n1 | > 1000 µM

System: not listed separately
Experiment: Cytotoxicity against human MT4 cells assessed as reduction in cell viability incubated for 5 days by MTT assay
Format: cell-based
Conditions: human, MT4 cells; time 5 day

Row | SMILES | CC50 at 120 h
5 | COc1cc2cc(C#N)ccc2c(OC)c1Oc1cc(NCCCO)nc(Nc2ccc(C#N)cc2)n1 | 23.5 µM
6 | COc1cc2cc(C#N)ccc2c(OC)c1Oc1cc(NC2CCOCC2)nc(Nc2ccc(C#N)cc2)n1 | > 125 µM

System: Human immunodeficiency virus 1
Experiment: Antiviral activity against HIV1 harboring reverse transcriptase L100I mutant infected in human MT4 cells assessed as protection against virus-induced cytopathic effect incubated for 5 days by MTT assay
Format: functional, organism-based
Conditions: Human immunodeficiency virus 1, MT4, 120 h

Row | SMILES | EC50
7 | COc1cc2cc(C#N)ccc2c(OC)c1Oc1cc(NCCCO)nc(Nc2ccc(C#N)cc2)n1 | 0.31 µM
8 | COc1cc2cc(C#N)ccc2c(OC)c1Oc1cc(NC2CCOCC2)nc(Nc2ccc(C#N)cc2)n1 | 1.51 µM

System: Human immunodeficiency virus 1
Experiment: Antiviral activity against HIV1 harboring reverse transcriptase K103N mutant infected in human MT4 cells assessed as protection against virus-induced cytopathic effect incubated for 5 days by MTT assay
Format: functional, organism-based
Conditions: Human immunodeficiency virus 1, MT4, 120 h

Row | SMILES | EC50
9 | COc1cc2cc(C#N)ccc2c(OC)c1Oc1cc(NCCCO)nc(Nc2ccc(C#N)cc2)n1 | 0.012 µM
10 | COc1cc2cc(C#N)ccc2c(OC)c1Oc1cc(NC2CCOCC2)nc(Nc2ccc(C#N)cc2)n1 | 0.09 µM

System: Human immunodeficiency virus 1
Experiment: Antiviral activity against HIV1 harboring reverse transcriptase Y181C mutant infected in human MT4 cells assessed as protection against virus-induced cytopathic effect incubated for 5 days by MTT assay
Format: functional, organism-based
Conditions: Human immunodeficiency virus 1, MT4, 120 h

Row | SMILES | EC50
11 | COc1cc2cc(C#N)ccc2c(OC)c1Oc1cc(NCCCO)nc(Nc2ccc(C#N)cc2)n1 | 0.11 µM
12 | COc1cc2cc(C#N)ccc2c(OC)c1Oc1cc(NC2CCOCC2)nc(Nc2ccc(C#N)cc2)n1 | 0.9 µM

System: Human immunodeficiency virus 1
Experiment: Antiviral activity against HIV1 harboring reverse transcriptase Y188L mutant infected in human MT4 cells assessed as protection against virus-induced cytopathic effect incubated for 5 days by MTT assay
Format: functional, organism-based
Conditions: Human immunodeficiency virus 1, MT4, 120 h

Row | SMILES | EC50
13 | COc1cc2cc(C#N)ccc2c(OC)c1Oc1cc(NCCCO)nc(Nc2ccc(C#N)cc2)n1 | 0.44 µM
14 | COc1cc2cc(C#N)ccc2c(OC)c1Oc1cc(NC2CCOCC2)nc(Nc2ccc(C#N)cc2)n1 | 2.62 µM

System: Human immunodeficiency virus 1
Experiment: Antiviral activity against HIV1 harboring reverse transcriptase E138K mutant infected in human MT4 cells assessed as protection against virus-induced cytopathic effect incubated for 5 days by MTT assay
Format: functional, organism-based
Conditions: Human immunodeficiency virus 1, MT4, 120 h

Row | SMILES | EC50
15 | COc1cc2cc(C#N)ccc2c(OC)c1Oc1cc(NCCCO)nc(Nc2ccc(C#N)cc2)n1 | 0.055 µM
16 | COc1cc2cc(C#N)ccc2c(OC)c1Oc1cc(NC2CCOCC2)nc(Nc2ccc(C#N)cc2)n1 | 0.21 µM

System: Human immunodeficiency virus 1
Experiment: Antiviral activity against HIV1 harboring reverse transcriptase F227L/V106A mutant infected in human MT4 cells assessed as protection against virus-induced cytopathic effect incubated for 5 days by MTT assay
Format: functional, organism-based
Conditions: Human immunodeficiency virus 1, MT4, 120 h

Row | SMILES | EC50
17 | COc1cc2cc(C#N)ccc2c(OC)c1Oc1cc(NCCCO)nc(Nc2ccc(C#N)cc2)n1 | 1.63 µM
18 | COc1cc2cc(C#N)ccc2c(OC)c1Oc1cc(NC2CCOCC2)nc(Nc2ccc(C#N)cc2)n1 | > 1000 µM

System: not listed separately
Experiment: Resistance fold, ratio of EC50 for HIV1 harboring reverse transcriptase Y181C mutant […] to EC50 for wild type HIV1 […]
Format: functional
Conditions: not given

Row | SMILES | Ratio EC50
19 | COc1cc2cc(C#N)ccc2c(OC)c1Oc1cc(NCCCO)nc(Nc2ccc(C#N)cc2)n1 | 8
20 | COc1cc2cc(C#N)ccc2c(OC)c1Oc1cc(NC2CCOCC2)nc(Nc2ccc(C#N)cc2)n1 | 23

System: not listed separately
Experiment: Resistance fold, ratio of EC50 for HIV1 harboring reverse transcriptase K103N mutant […] to EC50 for wild type HIV1 […]
Format: functional
Conditions: not given

Row | SMILES | Ratio EC50
21 | COc1cc2cc(C#N)ccc2c(OC)c1Oc1cc(NCCCO)nc(Nc2ccc(C#N)cc2)n1 | 1
22 | COc1cc2cc(C#N)ccc2c(OC)c1Oc1cc(NC2CCOCC2)nc(Nc2ccc(C#N)cc2)n1 | 1

System: Human immunodeficiency virus 1
Experiment: Antiviral activity against HIV1 harboring reverse transcriptase K103N/Y181C double mutant infected in human MT4 cells assessed as protection against virus-induced cytopathic effect incubated for 5 days by MTT assay
Format: functional, organism-based
Conditions: Human immunodeficiency virus 1, MT4, 120 h

Row | SMILES | EC50
23 | COc1cc2cc(C#N)ccc2c(OC)c1Oc1cc(NCCCO)nc(Nc2ccc(C#N)cc2)n1 | 0.23 µM
24 | COc1cc2cc(C#N)ccc2c(OC)c1Oc1cc(NC2CCOCC2)nc(Nc2ccc(C#N)cc2)n1 | 4.34 µM

System: not listed separately
Experiment: Selectivity index, ratio of CC50 for cytotoxicity against human MT4 cells to EC50 of Anti-HIV activity against HIV-1 IIIB infected in human MT4
Format: toxicity, cell-based
Conditions: read-out: Selectivity Index

Row | SMILES | selectivity ratio
25 | COc1cc2cc(C#N)ccc2c(OC)c1Oc1cc(NCCCO)nc(Nc2ccc(C#N)cc2)n1 | > 1630
26 | COc1cc2cc(C#N)ccc2c(OC)c1Oc1cc(NC2CCOCC2)nc(Nc2ccc(C#N)cc2)n1 | > 5970

System: not listed separately
Experiment: Resistance fold, ratio of EC50 for HIV1 harboring reverse transcriptase Y188L mutant […] to EC50 for wild type HIV1 […]
Format: functional
Conditions: not given

Row | SMILES | Ratio EC50
27 | COc1cc2cc(C#N)ccc2c(OC)c1Oc1cc(NCCCO)nc(Nc2ccc(C#N)cc2)n1 | 31
28 | COc1cc2cc(C#N)ccc2c(OC)c1Oc1cc(NC2CCOCC2)nc(Nc2ccc(C#N)cc2)n1 | 65

System: not listed separately
Experiment: Resistance fold, ratio of EC50 for HIV1 harboring reverse transcriptase E138K mutant […] to EC50 for wild type HIV1 […]
Format: functional
Conditions: not given

Row | SMILES | Ratio EC50
29 | COc1cc2cc(C#N)ccc2c(OC)c1Oc1cc(NCCCO)nc(Nc2ccc(C#N)cc2)n1 | 4
30 | COc1cc2cc(C#N)ccc2c(OC)c1Oc1cc(NC2CCOCC2)nc(Nc2ccc(C#N)cc2)n1 | 3

System: not listed separately
Experiment: Resistance fold, ratio of EC50 for HIV1 harboring reverse transcriptase F227L/V106A double mutant […] to EC50 for wild type HIV1 […]
Format: functional
Conditions: not given

Row | SMILES | Ratio EC50
31 | COc1cc2cc(C#N)ccc2c(OC)c1Oc1cc(NCCCO)nc(Nc2ccc(C#N)cc2)n1 | 113
32 | COc1cc2cc(C#N)ccc2c(OC)c1Oc1cc(NC2CCOCC2)nc(Nc2ccc(C#N)cc2)n1 | >25000

System: not listed separately
Experiment: Resistance fold, ratio of EC50 for HIV1 harboring reverse transcriptase K103N/Y181C double mutant […] to EC50 for wild type HIV1 […]
Format: functional
Conditions: not given

Row | SMILES | Ratio EC50
33 | COc1cc2cc(C#N)ccc2c(OC)c1Oc1cc(NCCCO)nc(Nc2ccc(C#N)cc2)n1 | 16
34 | COc1cc2cc(C#N)ccc2c(OC)c1Oc1cc(NC2CCOCC2)nc(Nc2ccc(C#N)cc2)n1 | 108

Target: Human immunodeficiency virus type 1 reverse transcriptase (Human immunodeficiency virus 1, UniProt Q72547)
Experiment: Inhibition of wild type HIV1 reverse transcriptase using oligo(dT)16 as primer measured after 40 mins by picogreen-dye based spectrofluorimetric analysis
Conditions: not given

Row | SMILES | IC50
35 | COc1cc2cc(C#N)ccc2c(OC)c1Oc1cc(NCCCO)nc(Nc2ccc(C#N)cc2)n1 | 0.19 µM
36 | COc1cc2cc(C#N)ccc2c(OC)c1Oc1cc(NC2CCOCC2)nc(Nc2ccc(C#N)cc2)n1 | 0.3 µM
